Test results as given in patent US20220050096A1, “ANALYTE-SENSITIVE PROBES AND CONTACT LENS FOR DIAGNOSIS OF OCULAR PATHOLOGIES” (University Of Maryland, Baltimore, priority 2020, published 2022).

Experiment: Sodium-dependent intensity decays of SG in 20 mM MOPS buffer, 8 mM KCl
Format: physicochemical
Set-up: key to α1 / α2 / α3 / f1 / f2 / f3: fractional amplitudes (α) and intensity fractions (f); Σαi=1.0, Σfi=1.0
Procedure: Fluorescence Spectroscopic Measurements. Fluorescence intensities and intensity decays were measured using a Varian™ Eclipse 4 spectrofluorometer and a FluoTime300 instrument from PicoQuant™ (Berlin, Germany) and analyzed with the EasyTau™ software. The excitation source was a 473 nm laser diode with a repetition rate of 40 MHZ and a pulse width less than 100 ps. In other embodiments, the excitation source for SG-PL was at 495 nm from a Solea™ supercontinuum laser (PicoQuant™, Germany) and a 375 nm laser diode (PDL 375, PicoQuant™), a repetition rate of 40 MHz, and a pulse width less than 100 ps. Some intensity and lifetime measurements for SG-PL (as indicated) were performed using Alba V confocal fluorescence lifetime microscopy, FLIM (ISS, Urbana, Ill.), with excitation source of a 473 nm laser diode with a repetition rate of 40 MHz and a pulse width near 250 ps.
Intensity decays were measured at the emission maximum with the band of 10 to 20 nm, analyzed in terms of the multi-exponential model:
I(t)=Σαi exp(−t/ti) (equation 1)
where ti are the individual decay times and αi the initial time-zero amplitudes. The mean decay time can be represented in two ways. The average lifetime is given by:
where Σαi=1.0 and Σfi=1.0. The term fi=αi τi is proportional to the fractional contribution of each component to the total intensity decay. The term τi/Σαi τi is the fractional contribution to the steady state emission. Here, we use the amplitude-weighted lifetime given by
which is appropriate when the emission is from a single fluorophore with a changing quantum yield. For a single exponential decay, the lifetime is given by τ=1.0/(knr+Γ) and the quantum yield is given by Q=Γ/(knr+Γ) where knr is the sum of all non-radiative decay rates and Γ is the radiative decay rate. The value of Γ is determined by the molecular extinction coefficient that remains constant under most conditions. For a single type of fluorophore with a constant value of Γ the normalized αi values represent the molecular fraction of each decay time component. The value of αi and τi were determined by non-linear least squares fitting using PicoQuant™ software.
Three decay time components were required for the intensity decays. Fluorescence anisotropy decays were determined by individual measurements of the polarized intensity decays with corrections for the G-factor. Resolution of multi-exponential decays is not necessary. The average lifetime can be used as a single measurement. […]

[1] = NaCl 0 mM, 20 mM MOPS buffer 8 mM KCl
[2] = NaCl 5 mM, 20 mM MOPS buffer 8 mM KCl
[3] = NaCl 10 mM, 20 mM MOPS buffer 8 mM KCl
[4] = NaCl 20 mM, 20 mM MOPS buffer 8 mM KCl

Work on COc1cc(N2CCOCCOCCN(c3cc(OC)c(NC(=O)c4ccc(-c5c6cc(Cl)c(=O)cc-6oc6cc([O-])c(Cl)cc56)c(C(=O)[O-])c4)cc3OC)CCOCC2)c(OC)cc1NC(=O)c1ccc(-c2c3cc(Cl)c(=O)cc-3oc3cc([O-])c(Cl)cc23)c(C(=O)[O-])c1.C[N+](C)(C)C.C[N+](C)(C)C.C[N+](C)(C)C.C[N+](C)(C)C [SG] yielded a f1 (NaCl 0 mM, MOPS buffer) of 0.272, a f2 (NaCl 0 mM, MOPS buffer) of 0.174 and a f3 (NaCl 0 mM, MOPS buffer) of 0.554. The α1 (NaCl 0 mM, MOPS buffer) was 0.703, the α2 (NaCl 0 mM, MOPS buffer) was 0.155 and the α3 (NaCl 0 mM, MOPS buffer) was 0.142. It also gave a τ1 (NaCl 0 mM, MOPS buffer) of 0.36 ns, a τ2 (NaCl 0 mM, MOPS buffer) of 1.03 ns and a τ3 (NaCl 0 mM, MOPS buffer) of 3.59 ns. It also gave a τf (NaCl 0 mM, MOPS buffer) of 2.27 ns, a τα (NaCl 0 mM, MOPS buffer) of 0.92 ns and a f1 [1] of 0.272. The f2 [1] was 0.174, the f3 [1] was 0.554 and the α1 [1] was 0.703. It also gave a α2 [1] of 0.155, a α3 [1] of 0.142 and a τ1 [1] of 0.36 ns. The τ2 [1] was 1.03 ns, the τ3 [1] was 3.59 ns and the τf [1] was 2.27 ns. For the same compound, the τα [1] was 0.92 ns, the f1 (NaCl 5 mM, MOPS buffer) was 0.111 and the f2 (NaCl 5 mM, MOPS buffer) was 0.223. For the same compound, the f3 (NaCl 5 mM, MOPS buffer) was 0.666, the α1 (NaCl 5 mM, MOPS buffer) was 0.439 and the α2 (NaCl 5 mM, MOPS buffer) was 0.244. It also gave a α3 (NaCl 5 mM, MOPS buffer) of 0.317, a τ1 (NaCl 5 mM, MOPS buffer) of 0.39 ns and a τ2 (NaCl 5 mM, MOPS buffer) of 1.44 ns. The τ3 (NaCl 5 mM, MOPS buffer) was 3.28 ns, the τf (NaCl 5 mM, MOPS buffer) was 2.55 ns and the τα (NaCl 5 mM, MOPS buffer) was 1.57 ns. It also gave a f1 [2] of 0.111, a f2 [2] of 0.223 and a f3 [2] of 0.666. It also gave a α1 [2] of 0.439, a α2 [2] of 0.244 and a α3 [2] of 0.317. The τ1 [2] was 0.39 ns, the τ2 [2] was 1.44 ns and the τ3 [2] was 3.28 ns. The τf [2] was 2.55 ns, the τα [2] was 1.57 ns and the f1 (NaCl 10 mM, MOPS buffer) was 0.078. It also gave a f2 (NaCl 10 mM, MOPS buffer) of 0.224, a f3 (NaCl 10 mM, MOPS buffer) of 0.699 and a α1 (NaCl 10 mM, MOPS buffer) of 0.341. The α2 (NaCl 10 mM, MOPS buffer) was 0.276, the α3 (NaCl 10 mM, MOPS buffer) was 0.383 and the τ1 (NaCl 10 mM, MOPS buffer) was 0.40 ns. It also gave a τ2 (NaCl 10 mM, MOPS buffer) of 1.43 ns, a τ3 (NaCl 10 mM, MOPS buffer) of 3.22 ns and a τf (NaCl 10 mM, MOPS buffer) of 2.60 ns. For the same compound, the τα (NaCl 10 mM, MOPS buffer) was 1.77 ns, the f1 [3] was 0.078 and the f2 [3] was 0.224. For the same compound, the f3 [3] was 0.699, the α1 [3] was 0.341 and the α2 [3] was 0.276. The α3 [3] was 0.383, the τ1 [3] was 0.40 ns and the τ2 [3] was 1.43 ns. It also gave a τ3 [3] of 3.22 ns, a τf [3] of 2.60 ns and a τα [3] of 1.77 ns. For the same compound, the f1 (NaCl 20 mM, MOPS buffer) was 0.094, the f2 (NaCl 20 mM, MOPS buffer) was 0.355 and the f3 (NaCl 20 mM, MOPS buffer) was 0.551. It also gave a α1 (NaCl 20 mM, MOPS buffer) of 0.324, a α2 (NaCl 20 mM, MOPS buffer) of 0.353 and a α3 (NaCl 20 mM, MOPS buffer) of 0.323. The τ1 (NaCl 20 mM, MOPS buffer) was 0.57 ns, the τ2 (NaCl 20 mM, MOPS buffer) was 2.00 ns and the τ3 (NaCl 20 mM, MOPS buffer) was 3.39 ns. For the same compound, the τf (NaCl 20 mM, MOPS buffer) was 2.63 ns, the τα (NaCl 20 mM, MOPS buffer) was 1.99 ns and the f1 [4] was 0.094. The f2 [4] was 0.355, the f3 [4] was 0.551 and the α1 [4] was 0.324. For the same compound, the α2 [4] was 0.353, the α3 [4] was 0.323 and the τ1 [4] was 0.57 ns. The τ2 [4] was 2.00 ns, the τ3 [4] was 3.39 ns and the τf [4] was 2.63 ns. It also gave a τα [4] of 1.99 ns, a f1 (NaCl 30 mM, MOPS buffer) of 0.068 and a f2 (NaCl 30 mM, MOPS buffer) of 0.295. The f3 (NaCl 30 mM, MOPS buffer) was 0.638, the α1 (NaCl 30 mM, MOPS buffer) was 0.255 and the α2 (NaCl 30 mM, MOPS buffer) was 0.349. It also gave a α3 (NaCl 30 mM, MOPS buffer) of 0.396, a τ1 (NaCl 30 mM, MOPS buffer) of 0.54 ns and a τ2 (NaCl 30 mM, MOPS buffer) of 1.72 ns. The τ3 (NaCl 30 mM, MOPS buffer) was 3.27 ns, the τf (NaCl 30 mM, MOPS buffer) was 2.63 ns and the τα (NaCl 30 mM, MOPS buffer) was 2.03 ns.
